Measurements: patent US11191762B2, “Alkyl substituted triazole compounds as agonists of the APJ Receptor” (priority 2016, dated 2021)

The molecules below were run against human APJ receptor (Homo sapiens (Human), UniProt P35414) (assay: biochemical). Conditions: [35S]GTPγS binding, membranes from CHO cells stably expressing human APJ receptor; read-out: Activity hAPJ SPA EC50 IP.
human APJ receptor, sequence (P35414 whole entry): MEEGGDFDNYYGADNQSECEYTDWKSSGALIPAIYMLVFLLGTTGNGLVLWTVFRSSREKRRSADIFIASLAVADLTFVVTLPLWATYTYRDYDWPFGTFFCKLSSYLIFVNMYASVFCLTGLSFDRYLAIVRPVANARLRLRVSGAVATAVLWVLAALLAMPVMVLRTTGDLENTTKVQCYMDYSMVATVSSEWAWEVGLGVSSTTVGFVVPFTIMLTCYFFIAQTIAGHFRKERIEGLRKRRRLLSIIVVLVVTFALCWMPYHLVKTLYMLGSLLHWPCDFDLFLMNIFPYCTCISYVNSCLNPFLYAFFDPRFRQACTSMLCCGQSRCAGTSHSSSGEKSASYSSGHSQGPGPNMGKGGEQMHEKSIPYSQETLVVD
Format: biochemical
Description: The human APJ receptor was cloned by polymerase chain reaction and the gene encoding the receptor was subcloned in pFLAG-CMV™-3 expression vector (Sigma, Saint Louis, Mo. USA) in-house at Amgen. A GTPγS binding assay was performed on membranes prepared from CHO cells stably expressing human APJ receptor. The optimum experimental conditions for the concentrations of GDP, MgCl2, and NaCl in the assay buffer were initially determined. The assay was performed in 9 μL assay buffer [20 mM HEPES, pH 7.5, 5 mM MgCl2, 100 mM NaCl and 0.1% (w/v) BSA], 1 μL of diluted test compound (starting with 0.75 mM, 2-fold serial dilution with DMSO, total 22 points), 10 μL of 18 µM GDP (final concentration of 3 μM GDP), 20 μL of […] membrane protein expressing human APJ receptor captured with WGA PS beads (final concentration of 5 μg per well), and 20 μL of 0.3 nM [^35S]GTPγS (final concentration is 0.1 nM [^35S]GTPγS)(Perkin Elmer Life and Analytical Sciences, Waltham USA).
`COc1cccc(OC)c1-n1c(C[C@@H]2CCCO2)nnc1NS(=O)(=O)[C@@H](C)[C@H](C)c1ncc(Cl)cn1` (mixture of isomers) [Example 46.0, (2S,3R)-3-(5-chloro-2-pyrimidinyl)-N-(4-(2,6-dimethoxyphenyl)-5-((2R)-tetrahydro-2-furanylmethyl)-4H-1,2,4-triazol-3-yl)-2-butanesulfonamide and (2S,3R)-3-(5-chloro-2-pyrimidinyl)-N-(4-(2,6-dimethoxyphenyl)-5-((2S)-tetrahydro-2-furanylmethyl)-4H-1,2,4-triazol-3-yl)-2-butanesulfonamide] showed an EC50 of 0.33 µM.
For `COc1cccc(OC)c1-n1c(C[C@@H]2CCS(=O)(=O)C2)nnc1NS(=O)(=O)[C@@H](C)[C@H](C)c1ncc(Cl)cn1` (mixture of isomers) [Example 47.0, (2S,3R)-3-(5-chloro-2-pyrimidinyl)-N-(4-(2,6-dimethoxyphenyl)-5-(((3R)-1,1-dioxidotetrahydro-3-thiophenyl)methyl)-4H-1,2,4-triazol-3-yl)-2-butanesulfonamide and (2S,3R)-3-(5-chloro-2-pyrimidinyl)-N-(4-(2,6-dimethoxyphenyl)-5-(((3S)-1,1-dioxidotetrahydro-3-thiophenyl)methyl)-4H-1,2,4-triazol-3-yl)-2-butanesulfonamide], the EC50 was 0.07 µM.
Work on `COc1ncnc(OC)c1-n1c(NS(=O)(=O)[C@@H](C)[C@H](C)c2ncc(Cl)cn2)nnc1[C@@H](C)OC(C)C` (single isomer, unassigned) [Example 2.0, (2S,3R)-3-(5-chloro-2-pyrimidinyl)-N-(4-(4,6-dimethoxy-5-pyrimidinyl)-5-((1R)-1-(1-methylethoxy)ethyl)-4H-1,2,4-triazol-3-yl)-2-butanesulfonamide or (2S,3R)-3-(5-chloro-2-pyrimidinyl)-N-(4-(4,6-dimethoxy-5-pyrimidinyl)-5-((1S)-1-(1-methylethoxy)ethyl)-4H-1,2,4-triazol-3-yl)-2-butanesulfonamide] yielded an EC50 of 0.17 µM.
With `COc1ncnc(OC)c1-n1c(NS(=O)(=O)[C@@H](C)[C@H](C)c2ncc(Cl)cn2)nnc1[C@@H](C)OC(C)C` (single isomer, unassigned) [Example 3.0, (2S,3R)-3-(5-chloro-2-pyrimidinyl)-N-(4-(4,6-dimethoxy-5-pyrimidinyl)-5-((1R)-1-(1-methylethoxy)ethyl)-4H-1,2,4-triazol-3-yl)-2-butanesulfonamide or (2S,3R)-3-(5-chloro-2-pyrimidinyl)-N-(4-(4,6-dimethoxy-5-pyrimidinyl)-5-((1S)-1-(1-methylethoxy)ethyl)-4H-1,2,4-triazol-3-yl)-2-butane sulfonamide] the EC50 was 0.32 µM.
`COc1ncnc(OC)c1-n1c(NS(=O)(=O)[C@@H](C)[C@H](C)c2ncc(Cl)cn2)nnc1[C@@H](C)OC` (single isomer, unassigned) [Example 4.0, (2S,3R)-3-(5-chloro-2-pyrimidinyl)-N-(4-(4,6-dimethoxy-5-pyrimidinyl)-5-((1R)-1-methoxyethyl)-4H-1,2,4-triazol-3-yl)-2-butanesulfonamide or (2S,3R)-3-(5-chloro-2-pyrimidinyl)-N-(4-(4,6-dimethoxy-5-pyrimidinyl)-5-((1S)-1-methoxyethyl)-4H-1,2,4-triazol-3-yl)-2-butanesulfonamide] showed an EC50 of 0.27 µM.
Molecule `COc1ncnc(OC)c1-n1c(NS(=O)(=O)[C@@H](C)[C@H](C)c2ncc(Cl)cn2)nnc1[C@@H](C)OC` (single isomer, unassigned) [Example 5.0, (2S,3R)-3-(5-chloro-2-pyrimidinyl)-N-(4-(4,6-dimethoxy-5-pyrimidinyl)-5-((1R)-1-methoxyethyl)-4H-1,2,4-triazol-3-yl)-2-butanesulfonamide or (2S,3R)-3-(5-chloro-2-pyrimidinyl)-N-(4-(4,6-dimethoxy-5-pyrimidinyl)-5-((1S)-1-methoxyethyl)-4H-1,2,4-triazol-3-yl)-2-butanesulfonamide] has an EC50 of 0.31 µM.
Work on `CC[C@@H](OC)c1nnc(NS(=O)(=O)[C@@H](C)[C@H](C)c2ncc(Cl)cn2)n1-c1c(OC)ncnc1OC` (single isomer, unassigned) [Example 6.0, (2S,3R)-3-(5-chloro-2-pyrimidinyl)-N-(4-(4,6-dimethoxy-5-pyrimidinyl)-5-((1R)-1-methoxypropyl)-4H-1,2,4-triazol-3-yl)-2-butanesulfonamide or (2S,3R)-3-(5-chloro-2-pyrimidinyl)-N-(4-(4,6-dimethoxy-5-pyrimidinyl)-5-((1S)-1-methoxypropyl)-4H-1,2,4-triazol-3-yl)-2-butanesulfonamide] yielded an EC50 of 0.74 µM.
Work on `CC[C@@H](OC)c1nnc(NS(=O)(=O)[C@@H](C)[C@H](C)c2ncc(Cl)cn2)n1-c1c(OC)ncnc1OC` (single isomer, unassigned) [Example 7.0, (2S,3R)-3-(5-chloro-2-pyrimidinyl)-N-(4-(4,6-dimethoxy-5-pyrimidinyl)-5-((1R)-1-methoxypropyl)-4H-1,2,4-triazol-3-yl)-2-butanesulfonamide or (2S,3R)-3-(5-chloro-2-pyrimidinyl)-N-(4-(4,6-dimethoxy-5-pyrimidinyl)-5-((1S)-1-methoxypropyl)-4H-1,2,4-triazol-3-yl)-2-butanesulfonamide] yielded an EC50 of 0.36 µM.
Molecule `COc1ncnc(OC)c1-n1c(CC(C)(C)C)nnc1NS(=O)(=O)[C@@H](C)[C@H](C)c1ncc(Cl)cn1` [Example 1.0, (2S,3R)-3-(5-chloro-2-pyrimidinyl)-N-(4-(4,6-dimethoxy-5-pyrimidinyl)-5-(2,2-dimethylpropyl)-4H-1,2,4-triazol-3-yl)-2-butanesulfonamide] has an EC50 of 0.24 µM.
`COCc1nnc(NS(=O)(=O)[C@@H](C)[C@H](C)c2cnc(C)cn2)n1-c1c(OC)cccc1OC` [Example 8.0, (2S,3R)-N-(4-(2,6-dimethoxyphenyl)-5-(methoxymethyl)-4H-1,2,4-triazol-3-yl)-3-(5-methyl-2-pyrazinyl)-2-butanesulfonamide] was tested, and the EC50 was 0.26 µM.
With `COCc1nnc(NS(=O)(=O)[C@@H](C)[C@H](C)c2cnc(C)cn2)n1-c1c(OC)ncnc1OC` [Example 9.0, (2S,3R)-N-(4-(4,6-dimethoxy-5-pyrimidinyl)-5-(methoxymethyl)-4H-1,2,4-triazol-3-yl)-3-(5-methyl-2-pyrazinyl)-2-butanesulfonamide] the EC50 was 0.63 µM.
Work on `COCc1nnc(NS(=O)(=O)[C@@H](C)[C@H](C)c2ncc(Cl)cn2)n1-c1c(OC)ncnc1OC` [Example 11.0, (2S,3R)-3-(5-chloro-2-pyrimidinyl)-N-(4-(4,6-dimethoxy-5-pyrimidinyl)-5-(methoxymethyl)-4H-1,2,4-triazol-3-yl)-2-butanesulfonamide] yielded an EC50 of 0.088 µM.

Same assay, conditions: read-out: Activity hAPJ SPA EC50 IP
With `COCc1nnc(NS(=O)(=O)[C@@H](C)[C@H](C)c2ncc(Cl)cn2)n1-c1c(OC)cccc1OC` [Example 10.0, (2S,3R)-3-(5-chloro-2-pyrimidinyl)-N-(4-(2,6-dimethoxyphenyl)-5-(methoxymethyl)-4H-1,2,4-triazol-3-yl)-2-butanesulfonamide] the EC50 was 0.015 µM.
`COCc1nnc(NS(=O)(=O)[C@@H](C)[C@H](OC)c2ncc(Cl)cn2)n1-c1c(OC)cccc1OC` [Example 12.0, (1R,2S)-1-(5-chloro-2-pyrimidinyl)-N-(4-(2,6-dimethoxyphenyl)-5-(methoxymethyl)-4H-1,2,4-triazol-3-yl)-1-methoxy-2-propanesulfonamide] gave an EC50 of 0.0048 µM.
